Source: the supplement of paper PMC10307832

Assays:
Experiment in all cases: relative viability (nuclei count vs DMSO), 5 days (fraction); higher = more cells survive
Doxorubicin + Dasatinib = compound: COc1cccc2c1C(=O)c1c(O)c3c(c(O)c1C2=O)C[C@@](O)(C(=O)CO)C[C@@H]3O[C@H]1C[C@H](N)[C@H](O)[C@H](C)O1 [Doxorubicin] + Cc1nc(Nc2ncc(C(=O)Nc3c(C)cccc3Cl)s2)cc(N2CCN(CCO)CC2)n1 [Dasatinib] (partner 0.075 µM)
Summary of the method: (§1)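 Lung cancer cell lines were seeded in 1536-well plates and dosed by pin tool the next day, with either a single drug or a fixed anchor-drug dose combined with five library-drug doses (not always all listed) spaced in √10 steps. Five days later, one step fixed the cells and stained their nuclei (final 0.05% Triton X-100, 1% formaldehyde, 1 ug/ml Hoechst), and nuclei were counted on 4× images. Relative viability is the nuclei count in treated wells divided by the count in vehicle wells, and each value is the median of duplicate plates.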

BAY61-3606 + Decitabine = compound: COC1=C(C=C(C=C1)C2=CC3=NC=CN3C(=N2)NC4=C(C=CC=N4)C(=O)N)OC [BAY61-3606] + Nc1ncn([C@H]2C[C@H](O)[C@@H](CO)O2)c(=O)n1 [Decitabine] (partner 2 µM)
Summary of the method: as §1

Doxorubicin + Luminespib = compound: COc1cccc2c1C(=O)c1c(O)c3c(c(O)c1C2=O)C[C@@](O)(C(=O)CO)C[C@@H]3O[C@H]1C[C@H](N)[C@H](O)[C@H](C)O1 [Doxorubicin] + CCNC(=O)c1noc(-c2cc(C(C)C)c(O)cc2O)c1-c1ccc(CN2CCOCC2)cc1 [Luminespib] (partner 0.01 µM)
Summary of the method: as §1

BAY61-3606 + Bortezomib = compound: COC1=C(C=C(C=C1)C2=CC3=NC=CN3C(=N2)NC4=C(C=CC=N4)C(=O)N)OC [BAY61-3606] + CC(C)C[C@H](NC(=O)[C@H](Cc1ccccc1)NC(=O)c1cnccn1)B(O)O [Bortezomib] (partner 0.002 µM)
Summary of the method: as §1

Cell Line	relative viability (Doxorubicin + Dasatinib; first compound 0.001 µM)	relative viability (Doxorubicin + Dasatinib; first compound 0.003162 µM)	relative viability (Doxorubicin + Dasatinib; first compound 0.01 µM)	relative viability (Doxorubicin + Dasatinib; first compound 0.03162 µM)	relative viability (Doxorubicin + Dasatinib; first compound 0.1 µM)	relative viability (BAY61-3606 + Decitabine; first compound 0.02 µM)	relative viability (BAY61-3606 + Decitabine; first compound 0.06325 µM)	relative viability (BAY61-3606 + Decitabine; first compound 0.2 µM)	relative viability (BAY61-3606 + Decitabine; first compound 0.6325 µM)	relative viability (BAY61-3606 + Decitabine; first compound 2 µM)	relative viability (Doxorubicin + Luminespib; first compound 0.001 µM)	relative viability (Doxorubicin + Luminespib; first compound 0.003162 µM)	relative viability (Doxorubicin + Luminespib; first compound 0.01 µM)	relative viability (Doxorubicin + Luminespib; first compound 0.03162 µM)	relative viability (Doxorubicin + Luminespib; first compound 0.1 µM)	relative viability (BAY61-3606 + Bortezomib; first compound 0.02 µM)	relative viability (BAY61-3606 + Bortezomib; first compound 0.06325 µM)	relative viability (BAY61-3606 + Bortezomib; first compound 0.2 µM)	relative viability (BAY61-3606 + Bortezomib; first compound 0.6325 µM)	relative viability (BAY61-3606 + Bortezomib; first compound 2 µM)
LXF-289	0.224	0.293	0.241	0.238	0.281	0.399	0.402	0.411	0.396	0.405	0.63	0.576	0.703	0.635	0.658	0.985	1.03	0.992	1.04	0.99
NCI-H23		1.01	0.88	0.668	0.547	0.393	0.329	0.363	0.346	0.383		0.221	0.235	0.18	0.23	0.97	1.36	0.871	1.13	0.77
NCI-H322M	0.29	0.237	0.27	0.275	0.272	0.747	0.666	0.662	0.706	0.657	0.635	0.846	0.858	0.401	0.357	1.27	1.27	1.19	1.1	1.14
NCI-H441		0.585	0.332	0.166	0.213	0.249	0.223	0.242	0.256	0.253		0.312	0.358	0.321	0.293	0.729	0.51	0.479	0.607	0.434
NCI-H460	0.507	0.427	0.405	0.171	0.0701	0.508	0.572	0.43	0.448	0.382	0.0376	0.0412	0.0317	0.0182	0.0137	1.12	1.12	1.05	0.92	0.548
NCI-H520	0.234	0.218	0.202	0.151	0.183	0.508	0.67	0.515	0.518	0.557	0.249	0.242	0.266	0.18	0.217	1.1	0.602	0.843	0.84	0.433
NCI-H596	0.663	0.621	0.681	0.506	0.579	1.06	0.967	1.14	0.965	1.08	0.933	1.21	0.838	0.821	1.02	0.99	1.08	1.17	1.48	1.1
NCI-H647	0.186	0.212	0.166	0.152	0.0503	0.382	0.433	0.391	0.416	0.256	0.117	0.13	0.11	0.185	0.149	1.16	1.06	1.19	1.07	0.696
